Measured values published in patent publication US5980913A, “Peptides having immunomodulatory activity” (Biochem Pharma, Inc., priority 1994, dated 1999).
Where a SMILES comes first, the peptide text is derived from it. [ ]: non-standard residue; d: D form.

Test system: blood cell subsets (cell surface antigens)
Experiment: In vivo/ex vivo immunophenotyping in the blood, mice treated 4 consecutive days, blood taken on day 5
Parameters: species or system C57BL/6 mice
Protocol: C57BL.backslash.6 mice are treated with 0, 50, 100, 200, and 300 mg/kg of drug (in saline) for 4 consecutive days. Blood is taken by cardiac puncture on day 5, and the lymphocytes are isolated from spleen in the following manner:
1. Immunophenotyping (blood and spleen)
Cell immunophenotyping is performed on blood and spleen. The following cell surface antigens are analyzed:
CD4 (T helper/inducer, binds class II-restricted T cells);
CD8 (cytotoxic T cells, CTL adhesion);
MAC-1 (monocyte/macrophage);
NK (natural killer cells);
CD45 (all leukocytes, protein tyrosine phosphatase).

For `NCCCC[C@@H](N)C(=O)N[C@@H](CC(N)=O)C(=O)N1CCC[C@H]1C(=O)N[C@@H](Cc1ccc(O)cc1)C(=O)O` [PEPTIDE #5, H-(D-Lys)-Asn-Pro-Tyr-OH] (H-[dK]NPY-OH), the “Ly5(B) cell subset, relative percentage, MEAN” value (100 mg/kg, first assay) was 58.73, the “NK+ CD3+ cell subset, relative percentage, MEAN” value (100 mg/kg, first assay) was 2.43 and the “NK+ CD3- cell subset, relative percentage, MEAN” value (100 mg/kg, first assay) was 6.00. The “NK- CD3+ cell subset, relative percentage, MEAN” value (100 mg/kg, first assay) was 33.58, the “NK- CD3- cell subset, relative percentage, MEAN” value (100 mg/kg, first assay) was 57.95 and the “TCR(T) cell subset, relative percentage, MEAN” value (100 mg/kg, first assay) was 32.23. The “CD4+ CD8+ cell subset, relative percentage, MEAN” value (100 mg/kg, second assay) was 0.33, the “CD4+ CD8- cell subset, relative percentage, MEAN” value (100 mg/kg, second assay) was 25.00 and the “CD4+ CD11b+ cell subset, relative percentage, MEAN” value (100 mg/kg, second assay) was 0.50. The “CD4+ CD11b- cell subset, relative percentage, MEAN” value (100 mg/kg, second assay) was 21.58, the “CD4- CD8+ cell subset, relative percentage, MEAN” value (100 mg/kg, second assay) was 6.80 and the “CD4- CD8- cell subset, relative percentage, MEAN” value (100 mg/kg, second assay) was 67.83. For the same compound, the “CD4- CD11b+ cell subset, relative percentage, MEAN” value (100 mg/kg, second assay) was 10.28, the “CD4- CD11b- cell subset, relative percentage, MEAN” value (100 mg/kg, second assay) was 67.65 and the “CD45+ CD4+ cell subset, relative percentage, MEAN” value (100 mg/kg, second assay) was 22.70. For the same compound, the “CD45+ CD4- cell subset, relative percentage, MEAN” value (100 mg/kg, second assay) was 68.45, the “CD45+ CD8+ cell subset, relative percentage, MEAN” value (100 mg/kg, second assay) was 7.05 and the “CD45+ CD8- cell subset, relative percentage, MEAN” value (100 mg/kg, second assay) was 85.00. The “CD45- CD4+ cell subset, relative percentage, MEAN” value (100 mg/kg, second assay) was 2.23, the “CD45- CD4- cell subset, relative percentage, MEAN” value (100 mg/kg, second assay) was 6.63 and the “CD45- CD8+ cell subset, relative percentage, MEAN” value (100 mg/kg, second assay) was 0.10. For the same compound, the “CD45- CD8- cell subset, relative percentage, MEAN” value (100 mg/kg, second assay) was 7.83, the “Ly5(B) cell subset, relative percentage, MEAN” value (100 mg/kg, second assay) was 56.10 and the “NK+ CD3+ cell subset, relative percentage, MEAN” value (100 mg/kg, second assay) was 4.68. The “NK+ CD3- cell subset, relative percentage, MEAN” value (100 mg/kg, second assay) was 7.58, the “NK- CD3+ cell subset, relative percentage, MEAN” value (100 mg/kg, second assay) was 36.30 and the “NK- CD3- cell subset, relative percentage, MEAN” value (100 mg/kg, second assay) was 51.43. For the same compound, the “TCR(T) cell subset, relative percentage, MEAN” value (100 mg/kg, second assay) was 37.50, the “CD4+ CD8+ cell subset, relative percentage, MEAN” value (200 mg/kg, first assay) was 1.90 and the “CD4+ CD8- cell subset, relative percentage, MEAN” value (200 mg/kg, first assay) was 19.00. For the same compound, the “CD4+ CD11b+ cell subset, relative percentage, MEAN” value (200 mg/kg, first assay) was 0.85, the “CD4+ CD11b- cell subset, relative percentage, MEAN” value (200 mg/kg, first assay) was 18.98 and the “CD4- CD8+ cell subset, relative percentage, MEAN” value (200 mg/kg, first assay) was 4.68. For the same compound, the “CD4- CD8- cell subset, relative percentage, MEAN” value (200 mg/kg, first assay) was 74.40, the “CD4- CD11b+ cell subset, relative percentage, MEAN” value (200 mg/kg, first assay) was 7.78 and the “CD4- CD11b- cell subset, relative percentage, MEAN” value (200 mg/kg, first assay) was 72.45. The “CD45+ CD4+ cell subset, relative percentage, MEAN” value (200 mg/kg, first assay) was 17.45, the “CD45+ CD4- cell subset, relative percentage, MEAN” value (200 mg/kg, first assay) was 57.70 and the “CD45+ CD8+ cell subset, relative percentage, MEAN” value (200 mg/kg, first assay) was 6.15. For the same compound, the “CD45+ CD8- cell subset, relative percentage, MEAN” value (200 mg/kg, first assay) was 64.30, the “CD45- CD4+ cell subset, relative percentage, MEAN” value (200 mg/kg, first assay) was 3.48 and the “CD45- CD4- cell subset, relative percentage, MEAN” value (200 mg/kg, first assay) was 21.35. The “CD45- CD8- cell subset, relative percentage, MEAN” value (200 mg/kg, first assay) was 29.08, the “CD45- CDE8+ cell subset, relative percentage, MEAN” value (200 mg/kg, first assay) was 0.48 and the “Ly5(B) cell subset, relative percentage, MEAN” value (200 mg/kg, first assay) was 65.60. The “NK+ CD3+ cell subset, relative percentage, MEAN” value (200 mg/kg, first assay) was 1.93, the “NK+ CD3- cell subset, relative percentage, MEAN” value (200 mg/kg, first assay) was 5.73 and the “NK- CD3+ cell subset, relative percentage, MEAN” value (200 mg/kg, first assay) was 33.03. The “NK- CD3- cell subset, relative percentage, MEAN” value (200 mg/kg, first assay) was 59.33, the “TCR(T) cell subset, relative percentage, MEAN” value (200 mg/kg, first assay) was 32.18 and the “CD4+ CD8+ cell subset, relative percentage, MEAN” value (200 mg/kg, second assay) was 0.30. For the same compound, the “CD4+ CD8- cell subset, relative percentage, MEAN” value (200 mg/kg, second assay) was 23.13, the “CD4+ CD11b+ cell subset, relative percentage, MEAN” value (200 mg/kg, second assay) was 0.13 and the “CD4+ CD11b- cell subset, relative percentage, MEAN” value (200 mg/kg, second assay) was 15.40. The “CD4- CD8+ cell subset, relative percentage, MEAN” value (200 mg/kg, second assay) was 7.58, the “CD4- CD8- cell subset, relative percentage, MEAN” value (200 mg/kg, second assay) was 69.03 and the “CD4- CD11b+ cell subset, relative percentage, MEAN” value (200 mg/kg, second assay) was 5.20. For the same compound, the “CD4- CD11b- cell subset, relative percentage, MEAN” value (200 mg/kg, second assay) was 79.30, the “CD45+ CD4+ cell subset, relative percentage, MEAN” value (200 mg/kg, second assay) was 20.85 and the “CD45+ CD4- cell subset, relative percentage, MEAN” value (200 mg/kg, second assay) was 71.95. The “CD45+ CD8+ cell subset, relative percentage, MEAN” value (200 mg/kg, second assay) was 7.83, the “CD45+ CD8- cell subset, relative percentage, MEAN” value (200 mg/kg, second assay) was 85.60 and the “CD45- CD4+ cell subset, relative percentage, MEAN” value (200 mg/kg, second assay) was 2.23. For the same compound, the “CD45- CD4- cell subset, relative percentage, MEAN” value (200 mg/kg, second assay) was 5.00, the “CD45- CD8+ cell subset, relative percentage, MEAN” value (200 mg/kg, second assay) was 0.05 and the “CD45- CD8- cell subset, relative percentage, MEAN” value (200 mg/kg, second assay) was 6.53. For the same compound, the “Ly5(B) cell subset, relative percentage, MEAN” value (200 mg/kg, second assay) was 65.63, the “NK+ CD3+ cell subset, relative percentage, MEAN” value (200 mg/kg, second assay) was 2.90 and the “NK+ CD3- cell subset, relative percentage, MEAN” value (200 mg/kg, second assay) was 6.83. For the same compound, the “NK- CD3+ cell subset, relative percentage, MEAN” value (200 mg/kg, second assay) was 32.30, the “NK- CD3- cell subset, relative percentage, MEAN” value (200 mg/kg, second assay) was 58.03 and the “TCR(T) cell subset, relative percentage, MEAN” value (200 mg/kg, second assay) was 35.80. The “CD4- CD8-, figure printed with the significant increase of B cells” value (all tested doses) was 73%, the “Ly5, figure printed with the significant increase of B cells” value (all tested doses) was 80% and the “change of B cells (in words)” value (all tested doses) was “significant increase”.
